Target: RIPK1 (recombinant GST-RIPK1 kinase domain, residues 1-327) (Homo sapiens (Human), UniProt Q13546)
Assay: RIPK1-ADP-Glo Enzymatic Assay
Assay type: biochemical
Settings: ADP-Glo; 25 nM GST-RIPK1, 300 μM ATP; assay lower limit ~25 nM; read-out: RIPK1 V0 Ec50
Outline: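 Luminescent ADP-Glo readout of ATP-to-ADP conversion. Conditions: 25 nM enzyme, 300 μM ATP, 3 μM dephospho-MBP, pH 7.3 HEPES buffer with 20 mM MgCl2; 30 min compound pre-incubation, 150 min reaction. EC50 via four-parameter sigmoidal regression; assay floor ~25 nM.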

RIPK1 (recombinant GST-RIPK1 kinase domain, residues 1-327), sequence (Q13546 1-327): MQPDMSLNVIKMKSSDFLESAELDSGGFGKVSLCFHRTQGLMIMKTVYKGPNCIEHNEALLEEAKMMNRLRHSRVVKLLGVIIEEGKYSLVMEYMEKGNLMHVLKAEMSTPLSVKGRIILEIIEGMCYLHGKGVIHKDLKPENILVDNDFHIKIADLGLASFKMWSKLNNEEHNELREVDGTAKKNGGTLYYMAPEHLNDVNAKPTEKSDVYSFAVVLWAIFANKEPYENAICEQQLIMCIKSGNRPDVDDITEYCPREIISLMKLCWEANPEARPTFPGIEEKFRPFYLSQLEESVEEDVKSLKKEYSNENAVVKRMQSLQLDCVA

EC50 [nM]	Structure (SMILES)
405	O=C(c1cnc(C(F)F)cn1)N1CCC2(CC1)O[C@@H]1CC[C@@H](c3cc(F)cc(F)c3)N1C2=O [Example 6.84, (5′S,7a′R)-1-[5-(difluoromethyl)pyr-azine-2-carbonyl]-5′-(3,5-difluorophenyl)-tetrahydro-3′H-spiro [piperidine-4,2′-pyrrolo[2,1-b][1,3]-oxazol]-3′-one]
32.2	Cc1ccc(F)c(C(=O)N2CCC3(CC2)O[C@@H]2CC[C@@H](c4cc(F)cc(F)c4)N2C3=O)n1 [Example 6.104, (5′S,7a′R)-5′-(3,5-difluorophenyl)-1-(3-fluoro-6-methylpyri-dine-2-carbonyl)tetra-hydro-3′H-spiro[piperi-dine-4,2′-pyrrolo[2,1-b][1,3]oxazol]-3′-one]
537	N#Cc1cnc(N2CC3(C2)O[C@@H]2CC[C@@H](c4ccccc4F)N2C3=O)nc1 [Example 4.119, 2-((5′S,7a′R)-5′-(2-fluorophenyl)-3′-oxotetrahydro-3′H-spiro[azetidine-3,2′-pyrrolo[2,1-b]oxazol]-1-yl)pyrimidine-5-carbonitrile]
< 25	O=C1N2[C@@H](CC[C@H]2c2ccccc2)OC12CCN(c1ncc(-c3ncco3)c(C(F)F)n1)CC2 [Example 21.3, (5′S,7a′R)-1-[4-(difluoromethyl)-5-(1,3-oxazol-2-yl)pyrimidin-2-yl]-5′-phenyltetrahydro-3′H-spiro[piperidine-4,2′-pyrrolo[2,1-b][1,3]oxazol]-3′-one]
< 25	COc1cc(C(=O)N2CCC3(CC2)O[C@@H]2CC[C@@H](c4cccc(F)c4)N2C3=O)ccc1F [Example 6.120, (5′S,7a′R)-1-(4-fluoro-3-methoxybenzene-1-carbonyl)-5′-(3-fluoro-phenyl)tetrahydro-3′H-spiro[piperidine-4,2′-pyrrolo[2,1-b][1,3]oxazol]-3′-one]
41.7	Cc1nccnc1[C@@H]1CC[C@H]2OC3(CCN(c4ccnc5c(F)cnn45)CC3)C(=O)N21 [Example 4.144, (5′S,7a′R)-1-(3-fluoropyrazolo[1,5-a]pyrimidin-7-yl)-5′-(3-methylpyrazin-2-yl)tetrahydro-3′H-spiro[piperidine-4,2′-pyrrolo[2,1-b] [1,3]oxazol]-3′-one]
29.4	Cc1ncc([C@@H]2CC[C@H]3OC4(CCN(c5ccnc6ccnn56)CC4)C(=O)N32)cc1F [Example 4.89, (5′S,7a′R)-5′-(5-fluoro-6-methylpyridin-3-yl)-1-(pyrazolo[1,5-a]pyrimidin-7-yl)tetrahydro-3′H-spiro[piperidine-4,2′-pyrrolo[2,1-b]oxazol]-3′-one]
57.3	O=C1N2[C@@H](CC[C@H]2c2ccccc2)OC12CCN(c1ncnc3c1COC3)CC2 [Example 4.222, (5′S,7a′R)-1-(5,7-dihydrofuro[3,4-d]pyrimidin-4-yl)-5′-phenyltetrahydro-3′H-spiro[piperidine-4,2′-pyrrolo[2,1-b] [1,3]oxazol]-3′-one]
< 25	O=C(c1ccc(F)cc1)N1CCC2(CC1)O[C@@H]1CC[C@@H](c3cc(F)cc(F)c3)N1C2=O [Example 6.70, (5′S,7a′R)-5′-(3,5-difluorophenyl)-1-(4-fluorobenzene-1-carbonyl)tetrahydro-3′H-spiro[piperidine-4,2′-pyrrolo[2,1-b] [1,3]oxazol]-3′-one]
